Results reported in patent US11260100B2, “Compositions targeting the interaction domain between p27Kip1 and Brk and methods of use thereof to inhibit p27 Y phosphorylation and cdk4 activity” (The Research Foundation for the State University of New York, priority 2014, dated 2022).

Key:
MCF7 breast cancer cells = test: Proliferation with ALT and Palbociclib at IC50 concentration (FIG. 9); format: cell-based, human; details: drugs at IC50 concentration, replaced every two days
Description: FIGS. 9A-9B: AltBrk Synergizes with Palbociclib. ALT, Palbociclib, or Brk alone or in combination were added to or expressed in MCF7 breast cancer cells on day 2 post plating. Drugs were added at their IC50 concentration, based on previous results. ALT is expressed from an ALT-MCF7 tetracycline inducible cell line generated in the Blain lab. When tetracycline is added to the cell culture media, ALT is expressed in these cells. Vector: no tetracycline was added, so no ALT induction was detected. (FIG. 9A) Cells were harvested and counted every two days, as a measure of proliferation. Proliferation is plotted as a percentage relative to that seen in the DMSO treated control. Drugs and media were replaced every two days. (FIG. 9B) Viability was measured by trypan blue staining, and plotted relative to viability seen in the DMSO treated control.
Additional experiments were performed assessing activity of Brk in combination with Palbociclib. The data presented in FIGS. 9A and 9B reveal that Palbociclib and Brk inhibit proliferation for 2 days, and then resistance is observed (proliferation increases). Alt maintained arrest for roughly 10 days (50% inhibition of proliferation is detected). […] Alt-Brk/Palbociclib combination leads to a more durable cell cycle arrest. Mono therapy treated cells start to become resistant between day 8-10. […]

[1] = system: MCF7 mock, WT, KM and YF cells; test: Viability of PD0332991 treated Brk expressing MCF7 lines; format: cell-based, human; details: all concentrations of the drug
From the text: The PCR fragments were ligated to the T7pGEMEX human His-p27 or T7pGEMEX human Flag-p27 plasmid for expression in E. coli. Mutants Y74F, Y88F, and Y88/89F were previously described (12). Flag-tagged p27 mutants were purified by Flag-immunoprecipitation with Flag antibody (M-2, Sigma F-18C9) and eluted with Flag peptide (Sigma F-4799) according to manufacturer's protocol. His-tagged p27 mutants were purified by FPLC via his-trap affinity chromatography (His-Trap HP, GE Healthcare 71-5247-01). The affinity column was stripped according to manufacturer's protocol, then washed with 5 column volumes of 100 mM CoCl2. The crude material was applied with a loading buffer consisting of 6 M urea, 500 mM NaCl, 50 mM Tris-HCl, pH 7.5 and 20% glycerol. The material was washed with 500 mM NaCl, 50 mM Tris-HCl, pH 7.5 and 10% glycerol. The purified material was eluted with 500 mM imidazole,20 mM Hepes pH 7.4 and 1 M KCl. The protein was then dialyzed overnight in a solution of 25 mM Hepes pH 7.7, 150 mM NaCl, 5 mM MgCl2 and 0.05% NP40. All purified proteins were analyzed by Coomassie and immunoblot analysis. […] Cells were counted using the automated cell counter (BioRad TC-20).Viability was measured by Trypan Blue staining and counted using the cell counter. • Immunoprecipitation. […]

HCC1954 (ER/PR-, Her2+) = test: Palbociclib sensitivity of breast cancer line; format: cell-based; details: Homo sapiens; HCC1954, non-responder

IC50 (HCC1954 (ER/PR-, Her2+)): > 1000 nM
Compound: CC(=O)c1c(C)c2cnc(Nc3ccc(N4CCNCC4)cn3)nc2n(C2CCCC2)c1=O [PD0332991]
duration of proliferation inhibition / arrest (MCF7 breast cancer cells): 2 days
viability [1]: unchanged
